One assay addresses T1, wildtype Kras / hSOS1 (Homo sapiens, UniProt P01116).
T1 construct: made in house; host or cells: E. coli BL21 (DE3)
The assay is described as follows: HTRF assay, wildtype Kras / SOS1 interaction. It is filed as binding. The settings on record: read-out: IC50 against wildtype Kras. A digest of the protocol: (§1)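 Compounds, in duplicate at six concentrations from 10 μM to 0.01 μM, are added to GST-K-Ras premixed with anti-GST-Eu(K), then His-hSOS1 with anti-6His-XL665. After roughly 10 min, FRET is measured and the emission ratio is used to derive IC50.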
(In general: Time-resolved FRET reads energy transfer from a long-lived donor to a nearby acceptor.)

The target in assay [1] is GST-tagged K-Ras mutant / His-tagged hSOS1 (Homo sapiens, UniProt P01116). The experiment in a line: HTRF assay, K-Ras mutant / SOS1 interaction. Type of assay: binding. The conditions noted are these: read-out: IC50 against mutant Kras. The method in brief: as §1
The mark [2] stands for this setting: compound nos. 102-196, general methodology of example 5.
[3] abbreviates: compound nos. 201-213, general methodology of example 5.

Each structure is given as a SMILES string. Where two headings read alike, the source gives them in different places.

T1 sequence (P01116 1-188 isoform P01116-2): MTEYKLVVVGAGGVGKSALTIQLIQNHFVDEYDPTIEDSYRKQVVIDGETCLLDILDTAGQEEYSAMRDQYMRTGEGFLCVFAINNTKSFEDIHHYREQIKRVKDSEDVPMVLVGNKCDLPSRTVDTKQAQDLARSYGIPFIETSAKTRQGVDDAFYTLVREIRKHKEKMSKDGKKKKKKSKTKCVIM
Chain of GST-tagged K-Ras mutant / His-tagged hSOS1 (P01116 whole entry G12D, form open): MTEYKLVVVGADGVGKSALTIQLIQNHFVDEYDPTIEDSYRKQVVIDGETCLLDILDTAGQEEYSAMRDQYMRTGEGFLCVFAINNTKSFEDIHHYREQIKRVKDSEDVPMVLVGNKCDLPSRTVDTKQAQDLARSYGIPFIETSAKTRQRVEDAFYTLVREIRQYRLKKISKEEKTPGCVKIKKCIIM

Turning to `Nc1nc2c(-c3c(Cl)cc4c(N5C6CCCC5CNC6)nc(OC[C@@]56CCCN5C[C@H](F)C6)nc4c3F)ccc(F)c2s1` [Compound 302, 4-(4-(3,9-diazabicyclo-[3.3.1]nonan-9-yl)-6-chloro-8-fluoro-2-(((2R,7aS)-2-fluorotetrahydro-1H-pyrrolizin-7a(5H)-yl)meth-oxy)quinazolin-7-yl)-7-fluorobenzo[d]thiazol-2-amine], the IC50 (at wildtype Kras / hSOS1 (compound nos. 301-306); in assay [1] (compound nos. 301-306)) was < 1500 nM throughout.

Regarding `Nc1nc2c(-c3c(Cl)cc4c(N5CC6CCC(CO)(C5)N6)nc(OC[C@@]56CCCN5C[C@H](F)C6)nc4c3F)ccc(F)c2s1` (stereo partly drawn) [Compound 518, (3-(7-(2-amino-7-fluoroben-zo-[d]thiazol-4-yl)-6-chloro-8-fluoro-2-(((2R,7aS)-2-fluorotetrahydro-1H-pyrrol-izin-7a(5H)-yl)methoxy)-quinazolin-4-yl)-3,8-diaza-bicyclo[3.2.1]octan-1-yl)-methanol], the figures for the IC50 (at wildtype Kras / hSOS1 (compound nos. 401-703); in assay [1] (compound nos. 401-703)) were > 500 nM and < 500 nM, respectively.

Turning to `Nc1nc2c(-c3c(Cl)cc4c(N5CCNCC(F)(F)C5)nc(Oc5cccnc5C5CC5)nc4c3F)cccc2s1` [Compound 145, 4-(6-chloro-2-((2-cycloprop-ylpyridin-3-yl)oxy)-4-(6,6-difluoro-1,4-diazepan-1-yl)-8-fluoroquinazolin-7-yl)-benzo[d]thiazol-2-amine], the IC50 (on wildtype Kras / hSOS1 (setting [2]); in assay [1] (setting [2])) was > 500 nM in each case.

For `Nc1nc2c(-c3c(Cl)cc4c(N5CC6CCC(C5)N6)nc(OCC5(CN6CC[C@H](F)C6)CC5)nc4c3F)ccc(F)c2s1` [Compound 443, 4-(4-(3,8-diazabicyclo-[3.2.1]octan-3-yl)-6-chloro-8-fluoro-2-((1-(((S)-3-fluoropyrrolidin-1-yl)meth-yl)cyclopropyl)methoxy)-quinazolin-7-yl)-7-fluoro-benzo[d]thiazol-2-amine], the IC50 (at wildtype Kras / hSOS1 (compound nos. 401-703); in assay [1] (compound nos. 401-703)) was < 500 nM throughout.

In the case of `O=C(c1cc(O)cc2ccccc12)N1CCc2nc(OCC34CCCN3CCC4)nc(N3CC4CCC(C3)N4)c2CC1` [Compound 694, (4-(3,8-diazabicyclo[3.2.1]-octan-3-yl)-2-((tetrahydro-1H-pyrrolizin-7a(5H)-yl)-methoxy)-5,6,8,9-tetrahydro-7H-pyrimido[4,5-d]azepin-7-yl)(3-hydroxynaphthalen-1-yl)methanone], the IC50 (on wildtype Kras / hSOS1 (compound nos. 401-703); in assay [1] (compound nos. 401-703)) was > 500 nM throughout.

`N#Cc1c(N)sc2c(F)ccc(-c3c(Cl)cc4c(N5C[C@H]6CC[C@@H](C5)N6CC5COC5)nc(OC[C@@]56CCCN5C[C@H](F)C6)nc4c3F)c12` [Compound 643, 2-amino-4-(6-chloro-8-fluoro-2-(((2R,7aS)-2-fluorotetrahydro-1H-pyrrolizin-7a(5H)-yl)-methoxy)-4-((1R,5S)-8-(oxetan-3-yl-methyl)-3,8-diazabicyclo[3.2.1]-octan-3-yl)quinazolin-7-yl)-7-fluorobenzo[b]-thiophene-3-carbonitrile]: the IC50 (as a rule, the concentration that inhibits the measured activity by half) on wildtype Kras / hSOS1 (compound nos. 401-703) was > 500 nM; in assay [1] (compound nos. 401-703), < 500 nM.

On to `Nc1nc2c(-c3c(Cl)cc4c(N5CCC6CCC(C5)N6)nc(OCC56CCCN5CCC6)nc4c3F)ccc(F)c2s1` (stereo not drawn) [Compound 494, 4-(4-(3,9-diazabicyclo-[4.2.1]nonan-3-yl)-6-chloro-8-fluoro-2-((tetrahydro-1H-pyrrolizin-7a(5H)-yl)meth-oxy)quinazolin-7-yl)-7-fluorobenzo[d]thiazol-2-amine], for which the IC50 (at wildtype Kras / hSOS1 (compound nos. 401-703); in assay [1] (compound nos. 401-703)) was < 500 nM each time.

As to `Cc1ccc2cnn(C)c2c1-c1c(Cl)cc2c(N3CCNCC(F)(F)C3)nc(OC[C@@]34CCCN3C[C@H](F)C4)nc2c1F` [Compound 175, 6-chloro-4-(6,6-difluoro-1,4-diazepan-1-yl)-7-(1,6-dimethyl-1H-indazol-7-yl)-8-fluoro-2-(((2R,7aS)-2-fluorotetrahydro-1H-pyrrolizin-7a(5H)-yl)meth-oxy)quinazoline], the IC50 (at wildtype Kras / hSOS1 (setting [2]); in assay [1] (setting [2])) was < 500 nM each time.

With `Nc1cc(-c2ccc3c(N4CC5CCC(C4)N5)nc(OCC45CCCN4CCC5)nc3c2F)c2c(Cl)cccc2n1` [Compound 498, 4-(4-(3,8-diazabicyclo-[3.2.1]octan-3-yl)-8-fluoro-2-((tetrahydro-1H-pyrrol-izin-7a(5H)-yl)methoxy)-quinazolin-7-yl)-5-chloro-quinolin-2-amine], the IC50 on wildtype Kras / hSOS1 (compound nos. 401-703) was < 500 nM; in assay [1] (compound nos. 401-703), > 500 nM.

For `N#CCCc1cc2c(N3CC4CCC(C3)N4)nc(OC[C@@]34CCCN3C[C@H](F)C4)nc2c(F)c1-c1cc(O)cc2ccccc12` [Compound 595, 3-(4-(3,8-diazabicyclo-[3.2.1]octan-3-yl)-8-fluoro-2-(((2R,7aS)-2-fluorotetra-hydro-1H-pyrrolizin-7a(5H)-yl)methoxy)-7-(3-hydroxynaphthalen-1-yl)-quinazolin-6-yl)propane-nitrile], the values for the IC50 (on wildtype Kras / hSOS1 (compound nos. 401-703); in assay [1] (compound nos. 401-703)) were > 500 nM and < 500 nM, respectively.

Turning to `Nc1nc2c(-c3c(Cl)cc4c(N5CCNCC(F)C5)nc(OC[C@@]56CCCN5C[C@H](F)C6)nc4c3F)ccc(F)c2s1` (stereo partly drawn) [Compound 164, 4-(6-chloro-8-fluoro-4-(6-fluoro-1,4-diazepan-1-yl)-2-(((2R,7aS)-2-fluorotetra-hydro-1H-pyrrolizin-7a(5H)-yl)methoxy)quinazolin-7-yl)-7-fluorobenzo[d]thiazol-2-amine], the IC50 (on wildtype Kras / hSOS1 (setting [2]); in assay [1] (setting [2])) was < 500 nM in each case.

Turning to `Nc1nc2c(-c3c(Cl)cc4c(N5CC6CCC(C5)N6)nc(OCC56CCCC5CCC6)nc4c3F)cccc2s1` (stereo not drawn) [Compound 571, 4-(4-(3,8-diazabicyclo-[3.2.1]octan-3-yl)-6-chloro-8-fluoro-2-((hexahydro-pentalen-3a(1H)-yl)meth-oxy)quinazolin-7-yl)benzo-[d]thiazol-2-amine], the IC50 (on wildtype Kras / hSOS1 (compound nos. 401-703); in assay [1] (compound nos. 401-703)) was > 500 nM each time.

With `N#Cc1ccc2ccccc2c1-c1ccc2c(N3CC4CCC(C3)N4)nc(OC[C@@]34CCCN3C[C@H](F)C4)nc2c1F` [Compound 691, 1-(4-(3,8-diazabicyclo-[3.2.1]octan-3-yl)-8-fluoro-2-(((2R,7aS)-2-fluorotetra-hydro-1H-pyrrolizin-7a(5H)-yl)methoxy)quinazolin-7-yl)-2-naphthonitrile], the IC50 (at wildtype Kras / hSOS1 (compound nos. 401-703); in assay [1] (compound nos. 401-703)) was > 500 nM each time.

Regarding `Nc1nc2c(-c3c(Cl)cc4c(N5CCNCC(F)(F)C5)nc(OCCCN5CCCC5)nc4c3F)ccc(F)c2s1` [Compound 555, 4-(6-chloro-4-(6,6-difluoro-1,4-diazepan-1-yl)-8-fluoro-2-(3-(pyrrolidin-1-yl)-propoxy)quinazolin-7-yl)-7-fluorobenzo[d]thiazol-2-amine], the results for the IC50 (at wildtype Kras / hSOS1 (compound nos. 401-703); in assay [1] (compound nos. 401-703)) were > 500 nM and < 500 nM, respectively.

Turning to `CN(C)CC1(COc2nc(N3C[C@H]4CC[C@@H](C3)N4)c3cc(Cl)c(-c4ccc(F)c5sc(N)nc45)c(F)c3n2)CC1` [Compound 210], the IC50 (at wildtype Kras / hSOS1 (setting [3]); in assay [1] (setting [3])) was < 1500 nM each time.

`Oc1cc(-c2c(Cl)cc3c(N4CC5CCC(C4)N5)nc(OCC45CCCC4CCC5)nc3c2F)c2ccccc2c1` (stereo not drawn) [Compound 410, 4-(4-(3,8-diazabicyclo-[3.2.1]octan-3-yl)-6-chloro-8-fluoro-2-((hexahydro-pentalen-3a(1H)-yl)meth-oxy)quinazolin-7-yl)naph-thalen-2-ol]: the IC50 at wildtype Kras / hSOS1 (compound nos. 401-703) is < 500 nM; in assay [1] (compound nos. 401-703) it was > 500 nM.

With `CN1C[C@@H](F)C[C@H]1COc1nc(N2CCNCC(F)(F)C2)c2cc(Cl)c(-c3cccc4sc(N)nc34)c(F)c2n1` [Compound 130, 4-(6-chloro-4-(6,6-difluoro-1,4-diazepan-1-yl)-8-fluoro-2-(((2S,4S)-4-fluoro-1-methylpyrrolidin-2-yl)meth-oxy)quinazolin-7-yl)benzo-[d]thiazol-2-amine], the IC50 at wildtype Kras / hSOS1 (setting [2]) is < 500 nM; in assay [1] (setting [2]) it was > 500 nM.

For the molecule `N#Cc1c(N)sc2c(F)ccc(-c3c(Cl)cc4c(N5CC6CCC(C5)N6C5CCOC5)nc(OC[C@@]56CCCN5C[C@H](F)C6)nc4c3F)c12` (stereo partly drawn) [Compound 605, 2-amino-4-(6-chloro-8-fluoro-2-(((2R,7aS)-2-fluoro-tetrahydro-1H-pyrrolizin-7a(5H)-yl)methoxy)-4-((1R,5S)-8-(tetrahydro-furan-3-yl)-3,8-diazabicyclo-[3.2.1]octan-3-yl)quinazolin-7-yl)-7-fluorobenzo[b]thio-phene-3-carbonitrile], the IC50 at wildtype Kras / hSOS1 (compound nos. 401-703) was > 500 nM; in assay [1] (compound nos. 401-703), < 500 nM.

Turning to `Nc1c(-c2c(Cl)cc3c(N4CC5CCC(C4)N5)nc(OCC45CCCN4CCC5)nc3c2F)cccc1C(F)(F)F` [Compound 527, 2-(4-(3,8-diazabicyclo-[3.2.1]octan-3-yl)-6-chloro-8-fluoro-2-((tetrahydro-1H-pyrrolizin-7a(5H)-yl)meth-oxy)quinazolin-7-yl)-6-(trifluoromethyl)aniline], the IC50 (at wildtype Kras / hSOS1 (compound nos. 401-703); in assay [1] (compound nos. 401-703)) was > 500 nM each time.

For `CN1CCC[C@H]1COc1nc(N2CCCC(O)CC2)c2cc(Cl)c(-c3cccc4sc(N)nc34)c(F)c2n1` (stereo partly drawn) [Compound 173, 1-(7-(2-aminobenzo[d]-thiazol-4-yl)-6-chloro-8-fluoro-2-(((S)-1-methyl-pyrrolidin-2-yl)methoxy)-quinazolin-4-yl)azepan-4-ol], the IC50 (at wildtype Kras / hSOS1 (setting [2]); in assay [1] (setting [2])) was < 500 nM in each case.

For `Nc1c(-c2c(Cl)cc3c(N4CC5CCC(C4)N5)nc(OCC45CCCN4CCC5)nc3c2F)cccc1C1CC1` [Compound 695, 2-(4-(3,8-diazabicyclo-[3.2.1]octan-3-yl)-6-chloro-8-fluoro-2-((tetrahydro-1H-pyrrolizin-7a(5H)-yl)meth-oxy)quinazolin-7-yl)-6-cyclopropylaniline], the IC50 (at wildtype Kras / hSOS1 (compound nos. 401-703); in assay [1] (compound nos. 401-703)) was > 500 nM throughout.

The values above are taken from patent publication US20240254129A1, “HETEROCYCLIC COMPOUNDS AND USES THEREOF” (Kumquat Biosciences Inc., priority 2021, published 2024).
